pIC50: −log10 of the molar value.
Legend:
QPCTL = target: T1, QPCTL (Homo sapiens, UniProt Q9NXS2); assay: Assay A: biochemical QPCTL activity assay (MALDI-TOF MS, CD47 peptide substrate); details: Table 3, prior art compounds, read-out: Inhibition of QPCTL: IC50
T1 construct: made in house
Summary of the method: (§1)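 Enzyme and compound pre-incubated 10 min at 24° C in 20 mM Tris pH 7.5 with TCEP, BSA, Tween20, then 40 min with CD47 peptide (10 μM for QPCTL, 20 μM for QPCT). Pyroglutamate product/internal standard ratio by MALDI-TOF MS, normalized to controls; four-parameter logistic fit.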

QPCT = target: T2, QPCT (Homo sapiens, UniProt Q16769); assay: Assay A: biochemical QPCT activity assay (MALDI-TOF MS, CD47 peptide substrate); details: Table 3, prior art compounds, read-out: Inhibition of QPCT: IC50
T2 construct: purchased Origine (OriGene) TP700028
Summary of the method: as §1

[1] = test system: SIRPα signalling induced by Raji cells; assay: Assay B: SIRPα signalling assay using Raji cells; format: cell-based; details: Homo sapiens, Table 5, prior art compounds, read-out: Inhibition of SIRPα signalling induced by Raji cells: IC50
Summary of the method: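 SIRPα signalling induced by Raji cells in a PathHunter reporter line, read as β-galactosidase complementation luminescence. Detection reagent 1 added for 15 min, then reagent 2 for 60 min in the dark, both at room temperature.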

[2] = test system: SIRPα signalling induced by A549 cells; assay: Assay B: SIRPα signalling assay using A549 cells; format: cell-based; details: Homo sapiens, Table 5, prior art compounds, read-out: Inhibition of SIRPα signalling induced by A549 cells: IC50
Summary of the method: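 Raji or A549 cells (5000/well) were each incubated with serially diluted compound for 48 h at 37 °C. Jurkat PathHunter SIRPαV1 reporter cells (15000/well) were then added for 5 h. Beta-galactosidase luminescence gave IC50 via a 4-parameter sigmoidal fit.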

[3] = Assay C: permeability in CACO-2 cells; format: in vitro ADME; details: human, Caco-2, pH 7.2
Summary of the method: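 Caco-2 monolayers were grown 10–25 days on porous filter inserts. Compound was applied to the apical or basolateral donor side for A-B or B-A transport (3 filters), and the receiver was sampled for up to 2 h. Quantitation was by HPLC-MS/MS or scintillation; efflux ratio = B-A/A-B permeability.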

CYP3A4 mRNA = assay: Assay D: CYP induction screening assay in primary human hepatocytes; format: in vitro ADME; details: Table 10, prior art compounds, 48 h
Summary of the method: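 Single-donor cryopreserved human hepatocytes on collagen with Matrigel overlay were exposed to test compound at […] (0.1% DMSO) for 48 h, medium renewed at 24 h. CYP3A4 mRNA quantified by QuantiGene Plex/Luminex, normalised to geometric mean of RPL32, EIF4E2, GUSB and expressed relative to solvent control.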

isolated QPCTL = isolated QPCTL (Homo sapiens, UniProt Q9NXS2); details: as disclosed in WO 2024/020517; read-out: Inhibitory activity on isolated QPCTL, IC50; cited from earlier work
[4] = test system: cellular (Ramos) QPCTL activity; details: Ramos cells, as disclosed in WO 2024/020517; read-out: Inhibitory activity of cellular (Ramos) QPCTL activity in a FACS assay; cited from earlier work

Sequence of isolated QPCTL (Q9NXS2 whole entry): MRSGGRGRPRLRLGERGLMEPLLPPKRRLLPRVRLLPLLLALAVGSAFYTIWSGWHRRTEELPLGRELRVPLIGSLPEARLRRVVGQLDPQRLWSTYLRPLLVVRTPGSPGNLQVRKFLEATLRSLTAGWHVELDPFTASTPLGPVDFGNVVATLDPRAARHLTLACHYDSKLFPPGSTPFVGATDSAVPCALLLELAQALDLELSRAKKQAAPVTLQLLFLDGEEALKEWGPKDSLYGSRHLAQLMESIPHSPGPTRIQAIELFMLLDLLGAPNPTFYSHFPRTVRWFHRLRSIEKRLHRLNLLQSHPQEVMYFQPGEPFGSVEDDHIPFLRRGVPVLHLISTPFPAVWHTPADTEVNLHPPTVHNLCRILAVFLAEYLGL
T1 sequence (Q9NXS2 whole entry, species assumed): as the sequence (Q9NXS2 whole entry) above
T2 sequence (Q16769 29-361): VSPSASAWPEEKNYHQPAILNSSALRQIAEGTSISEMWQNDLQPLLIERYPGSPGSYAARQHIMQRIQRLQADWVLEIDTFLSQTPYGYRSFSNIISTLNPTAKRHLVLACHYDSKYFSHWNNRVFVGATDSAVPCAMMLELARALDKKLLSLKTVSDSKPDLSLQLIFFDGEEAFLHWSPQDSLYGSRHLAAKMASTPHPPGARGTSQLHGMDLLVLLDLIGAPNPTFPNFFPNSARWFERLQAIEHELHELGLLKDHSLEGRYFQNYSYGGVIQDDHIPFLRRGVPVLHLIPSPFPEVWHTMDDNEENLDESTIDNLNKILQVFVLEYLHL

Compound: Cn1cnnc1C1CCN(c2c(-c3ccnnc3)ccc(Cl)c2C#N)CC1 [Compound 33, reference compound]
- pIC50 (QPCTL): 9.00
- pIC50 (QPCT): 8.70
- pIC50 [1]: 6.88
- pIC50 [2]: 7.25
- Papp A→B [3]: 0.2 ×10⁻⁶ cm/s
- efflux ratio ([3]; read-out: Efflux Ratio): 45.3
- n-fold induction of CYP3A4 at 10 μM (CYP3A4 mRNA): 1.7 n-fold
- pIC50 (isolated QPCTL): > 7.00
- pIC50 [4]: > 7.00
